According to patent US8119667B2, “Carbonates of fenicol antibiotics” (Schering-Plough Animal Health Corporation, priority 2005, dated 2012):
Values after ≈ are worked out from the molar mass of the structure shown.

Key:
[1] = Syringeability of dosing solutions (dripping-syringe method); type: physicochemical
Description: Table 4, below, provides evaluations of the syringeability of dosing solutions of selected florfenicol benzylic carbonate prodrugs at concentrations equivalent to 300 mg/ml florfenicol (30% weight/volume).
High concentrations of fenicol or fenicol drug contained in a fenicol prodrug are often necessary for convenient administration of the necessary amount of the desired amount of the antibiotic. Due to the limited solubility of fenicols in many organic solvents or mixtures of solvents acceptable for injectable formulations the choice of solvents for preparation of highly concentrated florfenicol solutions is limited. As a result highly concentrated solutions of fenicol drugs in organic solvents or solvent mixtures may become highly viscous and difficult to administer by a syringe. Therefore the ability of fenicol benzylic carbonate prodrugs to dissolve in a wider range of organic solvents or mixtures of solvents acceptable for injectable formulations offered the potential to prepare highly concentrated solutions for injections with lower viscosity. […] Test solutions of florfenicol benzylic carbonates containing concentrations of florfenicol (mg/mL) equivalent to the concentration present in Nuflor® formulation were prepared. Syringeabilities of the solutions were evaluated by means of the “dripping syringe” method in which the dripping times (sec) of equal volumes of such solutions under free gravitational flow conditions from a vertically positioned syringe were measured at 15° C. After removing the plunger from a 5 ml polyethylene disposable syringe (5 ml Luer, Norm-Ject Zentrish/Henke Saas Wolf GMBH) and fitting the syringe with a disposable needle (B-D® 16G1 Precision Glide/BentonDickinson & CO) the test solutions were loaded from the top into the syringe and the time necessary for the free flow of 2 mL of solution (between 3 ml and 1 ml marks) was recorded in triplicate. The syringeabilities relative to Nuflor® were calculated by dividing the dripping time for the test solutions (entries 1-12) by the dripping time measured for the commercial sample of Nuflor® formulation (entry 13) As it is evident from the results in Table 4 the syringeabilities of tested solutions containing benzyl alcohol as viscosity diluent had relative syringeabilities <1.00 and were therefore better than Nuflor® (30% weight/volume florfenicol solution in propylene glycol/polyethylene glycol 300/2-methyl pyrolidinone). Due to their better syringeability these solutions represent more favorable formulations for injectable delivery of florfenicol. Solution of the florfenicol benzylic carbonate of the example 2 in triacetin/2-pyrolidinone—1/1 lacking the benzyl alcohol viscosity diluent was the only solution with syringeability poorer that than that of Nuflor® (entry 5).

Aqueous solubility = type: physicochemical; settings: aqueous medium (not further specified)
Description: In some therapeutic applications florfenicol is administered in concentrated organic solution subcutaneously where it is known to form localized depot of the drug which results in the desired sustained release of the drug into the circulation. In such cases solubility of florfenicol in aqueous media represents one of important factors determining the rate of the sustained release. Another important factor affecting the sustained release of florfenicol from the subcutaneous depot site is the concentration of the dosing solution and the solvent composition of the formulation. Apart from the broader range of solvents which can be used for acceptable formulations of florfenicol benzylic carbonate prodrugs these prodrugs also allow a wide range of aqueous solubilities. Solubilities achieved with these prodrugs range from slightly to dramatically lower than that of florfenicol. Reduced aqueous solubilities of such prodrugs may be useful in controlling the rate of dissolution of the prodrug at the subcutaneous depot site and may allow achieving optimized sustained release of the parent drug.

[2] = In vitro enzymatic release of parent florfenicol from prodrugs in bovine serum; type: in vitro ADME; settings: 37° C.
Description: The ability of a prodrug derivative of a parent drug molecule to act efficiently in vivo as a source of the free parent drug determines the utility of a particular prodrug for treatment. The prodrug's ability to release the parent drug in vivo, in the presence of endogenous enzymes, can be determined by measuring the systemic levels of the parent drug after administration of the prodrug to the animal. This releasibility can also be assessed in vitro by measuring the release of the parent drug after mixing with animal whole blood, plasma or serum. Selected benzylic carbonate prodrugs of florfenicol were tested for release of florfenicol after in vitro mixing with bovine serum. […] A general trend of more lipophilic carbonates of florfenicol showing higher rates of degradation and release seems to be present among the compounds tested.
50 microliter of stock solution of carbonate pro-drug (10 mg/mL in DMSO) was added to 5 mL donor bovine serum and mixed. Aliquots of 400 microliter of the resulting solution were transferred into 1.5 mL plastic centrifuge tubes. Each plastic tube was placed into at 37° C. water bath for incubation. Samples were removed at 0, 1, 2, 4, 8, and 24 hours, and after addition of 400 microliter of acetonitrile to stop the reaction, rapidly stirred for 30 seconds. The precipitate was removed by centrifugation on an Eppendorf 5415G at 14000 rpm for 5 minutes. The clear supernatant solution was sampled for the HPLC analysis. The peak area of florfenicol was used to calculate the conversion of the prodrugs.

[3] = In vivo release of florfenicol: plasma levels after prodrug administration to rats; set-up: species or system Rat; settings: IV
Description: The pharmacokinetic profile of active antibiotic after prodrug administration, in vivo, was determined, as follows: • 1. In vivo release of active antibiotic confirmed in two different animal species: • The prodrug compound of Example 18 was administered by an intravenous (“IV”) route to rat and cattle subjects, followed by determination of florfenicol concentrations in the plasma collected over time. • The data of Table 8, below, illustrates the plasma levels of florfenicol that resulted following IV administration of the prodrug compound of Example 18, to both rat and cattle. • 4. Time of release of active moiety: • a.

[4] = Syringeability of dosing solutions (dripping-syringe method); type: physicochemical; settings: 418 mg/ml (35% weight by volume florfenicol); Triacetin/benzyl alcohol - 2:1; 15° C.
[5] = 358 mg/ml, 2-pyrolidinone/benzyl alcohol - 1:1, 15° C.
[6] = 358 mg/ml, Triacetin/2-pyrolidinone - 1:1, 15° C.
[7] = 358 mg/ml, Triacetin/benzyl alcohol - 2:1.5, 15° C.

CCOC(=O)O[C@H](c1ccc(S(C)(=O)=O)cc1)[C@@H](CF)NC(=O)C(Cl)Cl [Example 2, (1R,2S)-2-(2,2-dichloroacetamido)-3-fluoro-1-(4-(methylsulfonyl)phenyl)propyl ethyl carbonate]
Syringeability measurement: Dripping time [1, 5]: 108 ± 1 s | Syringeability measurement: Relative to NUFLOR [1, 5]: 0.46 | Syringeability measurement: Dripping time [1, 6]: 268 ± 4 s | Syringeability measurement: Relative to NUFLOR [1, 6]: 1.15 | Syringeability measurement: Dripping time [1, 7]: 97 ± 1 s | Syringeability measurement: Relative to NUFLOR [1, 7]: 0.42 | Syringeability measurement: Relative to NUFLOR ([1]; prodrug concentration equivalent to 300 mg/ml florfenicol, Triacetin/benzyl alcohol - 2:1 (vol/vol), 15° C.): 0.55 | Syringeability measurement: Dripping time ([1]; prodrug concentration equivalent to 300 mg/ml florfenicol, Triacetin/benzyl alcohol - 2:1 (vol/vol), free flow of 2 mL at 15° C.): 128 ± 7 s | solubility (Aqueous solubility): 690 µg/mL (≈ 1600 µM) | Florfenicol released from prodrugs (% of total) after treatment with bovine serum ([2]; 0 h): BQL^a | Florfenicol released from prodrugs (% of total) after treatment with bovine serum ([2]; 1 h): BQL | Florfenicol released from prodrugs (% of total) after treatment with bovine serum ([2]; 2 h): BQL | time of release of active antibiotic (florfenicol) after administration [3]: less than half an hour | Syringeability measurement: Dripping time [4]: 207 ± 3 s | Syringeability measurement: Relative to NUFLOR [4]: 0.89
